According to PubChem BioAssay AID1963853 (Molecular Pharmacology Branch, DTP, NCI, 2024):

Tested on: 266295-075-R-J1-PDC spheroid viability
Experiment: Anticancer human tumor 266295-075-R-J1-PDC patient-derived head and neck squamous carcinoma cell line growth inhibition [POLQ]
Details: spheroids with HUVEC and MSC; for IC50: curve of first compound; for viability, T/C: stronger effect = lower value
Procedure, shortened: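 Three-cell-type spheroids modelling solid tumor plus stroma served as the readout system; POL inhibitors were tested individually and in combination, concentration ranges set by clinical Cmax where known.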

[1] = second compound 0.0316 µM, first compound 0.0316 µM
[2] = second compound 0.0316 µM, first compound 0.1 µM
[3] = second compound 0.1 µM, first compound 0.0316 µM
[4] = second compound 0.1 µM, first compound 0.1 µM
[5] = second compound 0.316 µM, first compound 0.0316 µM
[6] = second compound 0.316 µM, first compound 0.1 µM
[7] = second compound 1 µM, first compound 0.0316 µM
[8] = second compound 1 µM, first compound 0.1 µM
[9] = second compound 3.16 µM, first compound 0.0316 µM
[10] = second compound 3.16 µM, first compound 0.1 µM
[11] = second compound 10 µM, first compound 0.0316 µM
[12] = second compound 10 µM, first compound 0.1 µM
[13] = second compound 0.0316 µM, first compound 0.316 µM
[14] = second compound 0.0316 µM, first compound 1 µM
[15] = second compound 0.0316 µM, first compound 3.16 µM
[16] = second compound 0.0316 µM, first compound 10 µM
[17] = second compound 0.1 µM, first compound 0.316 µM
[18] = second compound 0.1 µM, first compound 1 µM
[19] = second compound 0.1 µM, first compound 3.16 µM
[20] = second compound 0.1 µM, first compound 10 µM
[21] = second compound 0.316 µM, first compound 0.316 µM
[22] = second compound 0.316 µM, first compound 1 µM
[23] = second compound 0.316 µM, first compound 3.16 µM
[24] = second compound 0.316 µM, first compound 10 µM
[25] = second compound 1 µM, first compound 0.316 µM
[26] = second compound 1 µM, first compound 1 µM
[27] = second compound 1 µM, first compound 3.16 µM
[28] = second compound 1 µM, first compound 10 µM
[29] = second compound 3.16 µM, first compound 0.316 µM
[30] = second compound 3.16 µM, first compound 1 µM
[31] = second compound 3.16 µM, first compound 3.16 µM
[32] = second compound 3.16 µM, first compound 10 µM
[33] = second compound 10 µM, first compound 0.316 µM
[34] = second compound 10 µM, first compound 1 µM
[35] = second compound 10 µM, first compound 3.16 µM
[36] = second compound 10 µM, first compound 10 µM
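Further: spheroids exposed to compounds for seven days before readout.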

`Cn1ncnc1[C@H]1c2n[nH]c(=O)c3cc(F)cc(c23)N[C@@H]1c1ccc(F)cc1` + Nc1ccc(C#CCN(C(=O)Cc2ncc(C(F)(F)F)cc2C(F)(F)F)c2ccc(F)cc2)nn1 was tested, and the IC50 (second compound 0.0316 µM) was over 0.1 µM, the IC50 (second compound 0.1 µM) was over 0.1 µM and the IC50 (second compound 0.316 µM) was over 0.1 µM. It also gave an IC50 (second compound 1 µM) of over 0.1 µM, an IC50 (second compound 3.16 µM) of over 0.1 µM and an IC50 (second compound 10 µM) of over 0.1 µM. It also gave a viability, T/C (second compound 0.0316 µM, first compound 0.000316 µM) of 86.1%, a viability, T/C (second compound 0.0316 µM, first compound 0.001 µM) of 95.8% and a viability, T/C (second compound 0.0316 µM, first compound 0.00316 µM) of 89.1%. For the same molecule, the viability, T/C (second compound 0.0316 µM, first compound 0.01 µM) was 92.1%, the viability, T/C [1] was 79.7% and the viability, T/C [2] was 85.3%. The viability, T/C (second compound 0.1 µM, first compound 0.000316 µM) was 97.9%, the viability, T/C (second compound 0.1 µM, first compound 0.001 µM) was 107% and the viability, T/C (second compound 0.1 µM, first compound 0.00316 µM) was 91.8%. It also gave a viability, T/C (second compound 0.1 µM, first compound 0.01 µM) of 101%, a viability, T/C [3] of 88.5% and a viability, T/C [4] of 101%. For the same molecule, the viability, T/C (second compound 0.316 µM, first compound 0.000316 µM) was 110%, the viability, T/C (second compound 0.316 µM, first compound 0.001 µM) was 114% and the viability, T/C (second compound 0.316 µM, first compound 0.00316 µM) was 92.1%. For the same molecule, the viability, T/C (second compound 0.316 µM, first compound 0.01 µM) was 82.7%, the viability, T/C [5] was 93% and the viability, T/C [6] was 99.4%. The viability, T/C (second compound 1 µM, first compound 0.000316 µM) was 105%, the viability, T/C (second compound 1 µM, first compound 0.001 µM) was 96.3% and the viability, T/C (second compound 1 µM, first compound 0.00316 µM) was 78.6%. For the same molecule, the viability, T/C (second compound 1 µM, first compound 0.01 µM) was 99%, the viability, T/C [7] was 105% and the viability, T/C [8] was 69.7%. It also gave a viability, T/C (second compound 3.16 µM, first compound 0.000316 µM) of 103%, a viability, T/C (second compound 3.16 µM, first compound 0.001 µM) of 101% and a viability, T/C (second compound 3.16 µM, first compound 0.00316 µM) of 98.5%. The viability, T/C (second compound 3.16 µM, first compound 0.01 µM) was 83.8%, the viability, T/C [9] was 87.9% and the viability, T/C [10] was 87.6%. For the same molecule, the viability, T/C (second compound 10 µM, first compound 0.000316 µM) was 91.6%, the viability, T/C (second compound 10 µM, first compound 0.001 µM) was 103% and the viability, T/C (second compound 10 µM, first compound 0.00316 µM) was 110%. For the same molecule, the viability, T/C (second compound 10 µM, first compound 0.01 µM) was 104%, the viability, T/C [11] was 88.5% and the viability, T/C [12] was 122%.
`COc1cc2cc(C(=O)CCC(=O)O)sc2cc1OC` + COC1C(OC(N)=O)C(O)C(Oc2ccc3c(O)c(NC(=O)c4ccc(O)c(CC=C(C)C)c4)c(=O)oc3c2C)OC1(C)C showed an IC50 (second compound 0.0316 µM) of over 10 µM, an IC50 (second compound 0.1 µM) of over 10 µM and an IC50 (second compound 0.316 µM) of over 10 µM. For the same molecule, the IC50 (second compound 1 µM) was over 10 µM, the IC50 (second compound 3.16 µM) was over 10 µM and the IC50 (second compound 10 µM) was over 10 µM. The viability, T/C [1] was 99.4%, the viability, T/C [2] was 95.9% and the viability, T/C [13] was 114%. The viability, T/C [14] was 101%, the viability, T/C [15] was 95.4% and the viability, T/C [16] was 82.4%. It also gave a viability, T/C [3] of 69.1%, a viability, T/C [4] of 90.1% and a viability, T/C [17] of 96.8%. The viability, T/C [18] was 120%, the viability, T/C [19] was 93.8% and the viability, T/C [20] was 93.3%. For the same molecule, the viability, T/C [5] was 97.7%, the viability, T/C [6] was 91.6% and the viability, T/C [21] was 92.4%. It also gave a viability, T/C [22] of 99.2%, a viability, T/C [23] of 91.5% and a viability, T/C [24] of 87.6%. It also gave a viability, T/C [7] of 100%, a viability, T/C [8] of 96.4% and a viability, T/C [25] of 97.8%. The viability, T/C [26] was 111%, the viability, T/C [27] was 93.2% and the viability, T/C [28] was 93.4%. The viability, T/C [9] was 99.5%, the viability, T/C [10] was 90.2% and the viability, T/C [29] was 95.6%. For the same molecule, the viability, T/C [30] was 112%, the viability, T/C [31] was 90.7% and the viability, T/C [32] was 90.1%. The viability, T/C [11] was 114%, the viability, T/C [12] was 90.6% and the viability, T/C [33] was 96.5%. For the same molecule, the viability, T/C [34] was 98.5%, the viability, T/C [35] was 120% and the viability, T/C [36] was 90.2%.
`O=c1[nH]cc(F)c(=O)[nH]1` + Nc1ccc(C#CCN(C(=O)Cc2ncc(C(F)(F)F)cc2C(F)(F)F)c2ccc(F)cc2)nn1 gave an IC50 (second compound 0.0316 µM) of over 10 µM, an IC50 (second compound 0.1 µM) of over 10 µM and an IC50 (second compound 0.316 µM) of over 10 µM. For the same molecule, the IC50 (second compound 1 µM) was over 10 µM, the IC50 (second compound 3.16 µM) was over 10 µM and the IC50 (second compound 10 µM) was over 10 µM. The viability, T/C [1] was 107%, the viability, T/C [2] was 101% and the viability, T/C [13] was 104%. It also gave a viability, T/C [14] of 109%, a viability, T/C [15] of 102% and a viability, T/C [16] of 99.5%. It also gave a viability, T/C [3] of 85.5%, a viability, T/C [4] of 116% and a viability, T/C [17] of 84.7%. The viability, T/C [18] was 98%, the viability, T/C [19] was 109% and the viability, T/C [20] was 80.2%. For the same molecule, the viability, T/C [5] was 102%, the viability, T/C [6] was 96.5% and the viability, T/C [21] was 83%. The viability, T/C [22] was 89.6%, the viability, T/C [23] was 108% and the viability, T/C [24] was 76%. It also gave a viability, T/C [7] of 105%, a viability, T/C [8] of 85.7% and a viability, T/C [25] of 95.6%. The viability, T/C [26] was 120%, the viability, T/C [27] was 86% and the viability, T/C [28] was 79.8%. The viability, T/C [9] was 99.9%, the viability, T/C [10] was 131% and the viability, T/C [29] was 101%. For the same molecule, the viability, T/C [30] was 89.3%, the viability, T/C [31] was 99.1% and the viability, T/C [32] was 86.9%. The viability, T/C [11] was 113%, the viability, T/C [12] was 103% and the viability, T/C [33] was 95.8%. For the same molecule, the viability, T/C [34] was 96.3%, the viability, T/C [35] was 88% and the viability, T/C [36] was 87.1%.
